{"source": "patent US12370180B2", "about": "“P38 map kinase inhibitors for treating Friedreich's ataxia” (THE TRUSTEES OF THE UNIVERSITY OF PENNYSLVANIA, priority 2015, dated 2025)", "assay_type_in_all_cases": "cell-based, human", "key": {"[1]": {"system": "primary FA fibroblasts", "assay": "Growth of primary FA fibroblasts in beta-hydroxybutyrate (BHB) based mitochondrial stress medium", "details": "for reversal of the slow-growth phenotype (growth defect) of primary FA fibroblasts: beta-hydroxybutyrate-based media", "protocol": "The data shown are the means of triplicate samples+/−one SD. ***p<0.005. (C) Survival of normal control fibroblasts (GM8402) and FA fibroblasts (GM4078) in DMEM plus BHB after 12 days in culture. ***p<0.005. […] Cells were seeded at 80,000 cells per 100 mm dish and were kept sub-confluent. The data shown are the means of triplicate samples+/−one SD. ***p<0.005.\nFA 3665B cells were infected with gFA2 (squares), gFA11 (diamonds) or a random clone (C3) (triangles). Cells were then sorted and GFP-positive cells were grown in DMEM plus BHB 5 mM (FIG. 4A) or in DMEM plus 5 mM glucose (FIG. 4B) ***=p […].\nFA is caused by intronic trinucleotide repeat expansions that decrease expression of frataxin, a protein involved in mitochondrial iron-sulfur-cluster biogenesis. Clones were selected that reverse the slow-growth phenotype of primary FA fibroblasts in media with beta-hydroxybutyrate, a carbon source that particularly stresses cells with mitochondrial dysfunction (FIGS. 1 and 3). Among several clones identified, two clones have been tested and confirmed (FIG. 4): “Clone 2” (also referred to as gFA2) and “Clone 11” (also referred to as gFA11). The DNA coding strand for the shRNA sequences of those two […] (gFA2 and gFA11) are provided below, with the loop-encoding sequences in brackets. The shRNAs themselves are RNA versions of these sequences, with T changed to U.\nThese experiments have been repeated several times, over 4 days, 7 days, and 10 days, with the same results. Therefore, random shRNA screening can be combined with bioinformatic pattern matching to identify conventional chemical-compound therapeutic candidates, and potential therapeutic target proteins."}, "[2]": {"system": "cytokine secretion", "assay": "Cytokine secretion into media of FA cells, measured by ELISA", "details": "media of FA cells expressing clone vs gFA11-Mut1", "excerpt": "FIGS. 9A and 9B show the effect of gFA11 and gFA11-Mut1 shRNA sequences on the secretion of cytokines as measured by ELISA. […] These secretion patterns matched the expression changes seen on microarray analysis of mRNAs of the same cytokines.\n(§1) Of relevance, it has been shown that silencing of the FA disease gene induces a senescence phenotype. […] Finally, gene-expression analyses of cells expressing Clone 11 also indicated an up-regulation of genes involved in DNA repair."}, "[3]": {"system": "frataxin", "assay": "Frataxin expression in primary FA fibroblasts", "details": "vector-expressed shRNA or 10 nM transfected siRNA, BHB medium", "protocol": "Frataxin expression in GM3816 cells infected with gFA2 vs. a random clone (C3) (FIG. 5A) and in GM3665B cells transfected with 10 nM gFA2 siRNA or a random clone (C3) (FIG. 5B). Cells were transfected every 3-4 days for two weeks and kept in BHB medium after the first transfection. ***=p value<0.005\nFIG. 6: Hit-optimization of clone gFA2. A sub-library of ˜3000 sequences was constructed, each with a limited number of random mutations compared to gFA2. This sub-library was screened as described previously and two gFA2-variant clones, gFA2.8 and gFA2.10, were identified. […] (Cells were transfected every two days for one week and kept in DMEM plus 5 mM BHB after the first transfection. ***=p value<0.005). gFA2.8 has 5 mutations compared to gFA2; as a result, there are 5 mismatched bases in the hairpin structure."}, "[4]": {"system": "GM3816 cells", "assay": "Sensitivity of FA cells to ionizing (gamma) radiation", "details": "0.6 Gy irradiation", "excerpt": "as §1"}}, "note": "Entries after “also recorded” stand apart in the source; their conditions may differ."}
{"molecule": "ralimetinib dimesylate [LY-2228820]", "values": [{"measurement": "increased growth", "setting": "[1]; at 50 nM, p<0.005", "value": 1.6, "unit": "fold"}, {"measurement": "reversal of the slow-growth phenotype (growth defect) of primary FA fibroblasts", "setting": "[1]", "value": "recapitulate the phenotype induced by Clone 11; also recorded: reversal of the growth defect"}]}
{"molecule": "CNC(=O)c1ccc(C)c(-n2c(C)cc(OCc3ccc(F)cc3F)c(Br)c2=O)c1", "note": "[PH-797804]", "values": [{"measurement": "reversal of the slow-growth phenotype (growth defect) of primary FA fibroblasts", "setting": "[1]", "value": "reversal of the growth defect"}]}
{"molecule": "Cc1ccc(-n2nc(C(C)(C)C)cc2NC(=O)Nc2ccc(OCCN3CCOCC3)c3ccccc23)cc1", "note": "[BIRB-796, doramapimod]", "values": [{"measurement": "reversal of the slow-growth phenotype (growth defect) of primary FA fibroblasts", "setting": "[1]", "value": "recapitulate the phenotype induced by Clone 11; also recorded: reverses the growth defect"}]}
{"molecule": "gFA11: hit shRNA from random library, SEQ ID No: 2; siRNA version SEQ ID No: 3 and 4 (chain 1 AACAGAAUGGAAGAGUGCUGGGUDGDG; chain 2 UGUUGUCUUACCUUCUCACGACCCACC; listed as RNA, chemistry not fully specified; one strand is listed 3' to 5')", "values": [{"measurement": "GM-CSF secretion", "setting": "[2]; p<0.001", "value": "decreases"}, {"measurement": "VEGF secretion", "setting": "[2]; p<0.001", "value": "decreases"}, {"measurement": "IL8 (IL-8) secretion", "setting": "[2]; p=0.001", "value": "decreases"}, {"measurement": "GRO secretion", "setting": "[2]; p=0.003", "value": "decreases"}, {"measurement": "MCP-1 secretion", "setting": "[2]; p=0.005", "value": "decreases"}, {"measurement": "IL1-beta (IL-1-beta) secretion", "setting": "[2]; p=0.01", "value": "decreases"}, {"measurement": "IP-10 secretion", "setting": "[2]; p=0.01", "value": "decreases"}, {"measurement": "RANTES secretion", "setting": "[2]; p=0.04", "value": "decreases"}, {"measurement": "IL6 (IL-6) secretion", "setting": "[2]; p=0.09", "value": "decreases"}, {"measurement": "reversal of the slow-growth phenotype (growth defect) of primary FA fibroblasts", "setting": "[1]", "value": "increase the growth of FA fibroblasts; also recorded: growth-enhancing effect; also recorded: recapitulate the phenotype induced by the corresponding shRNA sequence"}, {"measurement": "reversal of the slow-growth phenotype (growth defect) of primary FA fibroblasts", "setting": "[1]; listed as Clone 11", "value": "more effective than Clone 2"}, {"measurement": "frataxin expression", "setting": "[3]", "value": "does not increase frataxin expression"}, {"measurement": "cell susceptibility to gamma irradiation", "setting": "[4]", "value": "are able to recover"}, {"measurement": "cell susceptibility to gamma irradiation", "setting": "[4]; listed as Clone 11", "value": "protective"}]}
{"molecule": "Cc1ccc(-n2nc(C(C)(C)C)cc2NC(=O)NCc2cc(F)ccc2Oc2ccc3c(cnn3CCO)c2)cc1", "note": "[ARRY-614, pexmetinib]", "values": [{"measurement": "reversal of the slow-growth phenotype (growth defect) of primary FA fibroblasts", "setting": "[1]", "value": "reversal of the growth defect"}]}
{"molecule": "NC(=O)c1ccc(N(C(N)=O)c2c(F)cccc2F)nc1-c1ccc(F)cc1F", "note": "[VX-702]", "values": [{"measurement": "increased growth", "setting": "[1]; at 500 nM, p=0.02", "value": 1.2, "unit": "fold"}, {"measurement": "reversal of the slow-growth phenotype (growth defect) of primary FA fibroblasts", "setting": "[1]", "value": "recapitulate the phenotype induced by Clone 11; also recorded: reversal of the growth defect"}]}
{"molecule": "Oc1ccc(-c2nc(-c3ccncc3)c(-c3ccc(F)cc3)[nH]2)cc1", "note": "[SB-202190]", "values": [{"measurement": "reversal of the slow-growth phenotype (growth defect) of primary FA fibroblasts", "setting": "[1]", "value": "recapitulate the phenotype induced by Clone 11; also recorded: reversal of the growth defect"}]}
{"molecule": "gFA11-Mut1: version of Clone 11 with a point mutation in the seed sequence, SEQ ID No: 5 and 6 (chain 1 AACACAAUGGAAGAGUGCUGGGUDGDG; chain 2 UGUUGUGUUACCUUCUCACGACCCACC; listed as RNA, chemistry not fully specified; one strand is listed 3' to 5')", "values": [{"measurement": "reversal of the slow-growth phenotype (growth defect) of primary FA fibroblasts", "setting": "[1]", "value": "diminished; also recorded: the growth-enhancement phenotype of gFA11 is affected"}]}
{"molecule": "Cc1c(F)cc(C(=O)NC2CC2)cc1-c1ccc(C(=O)NCC(C)(C)C)cn1", "note": "[GW-856553, losmapimod]", "values": [{"measurement": "reversal of the slow-growth phenotype (growth defect) of primary FA fibroblasts", "setting": "[1]", "value": "reversal of the growth defect"}]}
{"molecule": "O=c1ncn2nc(Sc3ccc(F)cc3F)ccc2c1-c1c(Cl)cccc1Cl", "note": "[VX-745]", "values": [{"measurement": "reversal of the slow-growth phenotype (growth defect) of primary FA fibroblasts", "setting": "[1]", "value": "reversal of the growth defect"}]}
{"molecule": "C[S+]([O-])c1ccc(-c2nc(-c3ccncc3)c(-c3ccc(F)cc3)[nH]2)cc1", "note": "(centres unmarked) [SB-203580]", "values": [{"measurement": "reversal of the slow-growth phenotype (growth defect) of primary FA fibroblasts", "setting": "[1]", "value": "recapitulates the phenotype induced by Clone 11; also recorded: reverses the growth defect"}, {"measurement": "reversal of the slow-growth phenotype (growth defect) of primary FA fibroblasts", "setting": "[1]; listed as SB203580", "value": "increase the growth of FA cells in a dose-dependent manner"}]}
{"molecule": "gFA2: hit shRNA (also used as siRNA) from random shRNA library, SEQ ID No: 1 (nucleic acid) GCCAATCGGGGAGGTCGGCGCATATCATGCTAAACCATGATATGCGCCGACCTCCCCGATTGGC", "values": [{"measurement": "reversal of the slow-growth phenotype (growth defect) of primary FA fibroblasts", "setting": "[1]", "value": "increase the growth of FA fibroblasts"}, {"measurement": "frataxin expression", "setting": "[3]", "value": "increases frataxin expression"}, {"measurement": "frataxin expression", "setting": "[3]; listed as Clone 2", "value": "partially reverses the decreased expression of frataxin"}]}
{"molecule": "gFA2.10: gFA2-variant clone, SEQ ID No: 10 (nucleic acid, expressed or natural sequence) GCCCCTCGGGCAGGTCGGCGAATATCATGCTAAACTATGATATGCGCCGACCTTCCCGATTGGC", "values": [{"measurement": "frataxin expression", "setting": "[3]", "value": "more efficacious"}]}
{"molecule": "gFA2.8: gFA2-variant clone with 5 mutations compared to gFA2, SEQ ID No: 9 (nucleic acid, expressed or natural sequence) GCCCCTCGGGCAGGTCGGCGAATATCATGCTAAACTATGATATGCGCCGACCTCCCCGATTGGC", "values": [{"measurement": "frataxin expression", "setting": "[3]", "value": "more efficacious"}]}
